Assay: Pharmacokinetics of DBAC generated from polymer-drug conjugate (UPLC-MS/MS)
Format: in vivo, CD-1 mice
Conditions: CD1 mice; for F: oral relative to intravenous, 10 mg/kg
Experimental: UPLC-MS/MS. Chromatography was performed on an AcquityTM UPLC system (Waters Corp, Milford, MA) with an autosampler temperature at 10° C. Waters Acquity UPLC® BEH Phenyl column (3.0×50 mm, 1.7 μm particle size) was used for chromatographic separation with linear gradient elution consisting of (A) 90% acetonitrile and (B) 10% of 0.2% formic acid in Milli-Q water as mobile phases. The flow rate was set at 0.30 mL/min, and the injection volume was 2 μL. An Acquity Tandem Quadrupole Mass Detector (Xevo TQ-S; Waters Corp, Milford, MA) in positive electrospray ionization mode was used for mass spectrometric detection. For collision-induced dissociation, argon was used as collision gas. The cone voltage and collision energy were set at 40 V and 24 V for DBAC and 40 V and 26 V for the tolbutamide (IS), respectively. Quantification was performed using the monitoring of multiple reaction monitoring (MRM) of following transitions: m/z 276/186 for DBAC and m/z 271/90.9 for IS. […] Pharmacokinetics of […]. All procedures were performed in compliance with the University of Mississippi Animal Care and Use Committee and following the National Institutes of Health (NIH) guidelines. […] Either DBAC or […] were administered at 10 mg/kg through oral gavage or retro-orbital IV injection at a volume of 0.1 mL. The vehicle for DBAC was 10% absolute alcohol, 10% cremophor and 80% Milli-Q water, whereas the […] polymer was administered in 100% PBS. […] Blood was collected by cardiac puncture and stored in K2 EDTA tubes (SAI Infusion Technologies, #MVCB-E-300). Mice were then perfused through heart with PBS (Life Technologies, #10-010-072). Plasma was harvested by centrifuging the blood using Eppendorf […] Centrifuge (Germany) at 5,000 rpm for 5 min and stored frozen at -80±10° C. until analysis. […] Sample preparation for DBAC detection. A simple protein precipitation method was followed for extraction of DBAC from mice plasma. To an aliquot of 50 μL of plasma or tissue (GI tract, heart, lung, spleen, liver or kidney) samples, tolbutamide (internal standard, IS) solution (5 μL of 20 ng/ml) was added and mixed for 15 s on a cyclomixer (Thermo Scientific, IN, USA). After precipitation with 500 μL of acetonitrile, the mixture was vortexed for 2 min, followed by centrifugation for 10 min at 14,000 rpm on an accuSpin Micro 17R (Fisher Scientific, USA) at 5° C. An aliquot of 150 μL of clear supernatant was transferred into vials and 2 μL was injected into the UPLC-MS/MS system for analysis. The primary stock solutions of DBAC and tolbutamide (IS) were prepared in methanol at 1.0 mg/mL concentration. Working solutions of calibration standards and quality control (QC) samples were prepared by dilution with methanol and stored at -20° C. A working stock of the IS solution (20 ng/ml) was prepared in methanol and stored at -20° C.

[1] = GI tract, intravenous 10 mg/kg conjugate
[2] = GI tract, oral 10 mg/kg conjugate
[3] = Heart, intravenous 10 mg/kg conjugate
[4] = Kidney, intravenous 10 mg/kg conjugate
[5] = Kidney, oral 10 mg/kg conjugate
[6] = Liver, intravenous 10 mg/kg conjugate
[7] = Lung, intravenous 10 mg/kg conjugate
[8] = Plasma, intravenous 10 mg/kg conjugate
[9] = Plasma, oral 10 mg/kg conjugate
[10] = Spleen, intravenous 10 mg/kg conjugate

AUC0-α [1]: 18544 ± 156 ng·h/g
CO [1]: 4899 ± 1104 ng/g
t1/2 [1]: 6.97 ± 1.03 h
AUC0-α [2]: 95643 ± 1023 ng·h/g
Tmax [2]: 1.25 ± 0.53 h
F (GI tract): >100 ± 47.5%
AUC0-α [3]: 8914 ± 512 ng·h/g
CO [3]: 4961 ± 715 ng/g
t1/2 [3]: 2.20 ± 0.78 h
AUC0-α (Heart, oral 10 mg/kg conjugate): 1008 ± 95.6 ng·h/g
Tmax (Heart, oral 10 mg/kg conjugate): 4.38 ± 0.53 h
F (Heart): 11.3 ± 2.57%
AUC0-α [4]: 10575 ± 1910 ng·h/g
CO [4]: 41296 ± 2103 ng/g
t1/2 [4]: 3.49 ± 0.59 h
AUC0-α [5]: 490 ± 101 ng·h/g
Tmax [5]: 0.50 ± 0.00 h
F (Kidney): 4.64 ± 2.59%
AUC0-α [6]: 17457 ± 3832 ng·h/g
CO [6]: 36898 ± 2501 ng/g
t1/2 [6]: 2.24 ± 0.37 h
AUC0-α (Liver, oral 10 mg/kg conjugate): 1464 ± 346 ng·h/g
Tmax (Liver, oral 10 mg/kg conjugate): 0.63 ± 0.25 h
F (Liver): 8.38 ± 1.98%
AUC0-α [7]: 1772 ± 141 ng·h/g
CO [7]: 1326 ± 202 ng/g
t1/2 [7]: 3.73 ± 0.47 h
AUC0-α (Lung, oral 10 mg/kg conjugate): 1315 ± 85.6 ng·h/g
Tmax (Lung, oral 10 mg/kg conjugate): 1.25 ± 0.68 h
F (Lung): 74.2 ± 25.3%
AUC0-α [8]: 1586 ± 125 ng·h/mL
CO [8]: 7216 ± 1023 ng/mL
t1/2 [8]: 1.09 ± 0.12 h
AUC0-α [9]: 120 ± 65.0 ng·h/mL
Cmax [9]: 119 ± 25.3 ng/mL
Tmax [9]: 0.75 ± 0.29 h
F (Plasma): 7.59 ± 2.48%
AUC0-α [10]: 1089 ± 124 ng·h/g
CO [10]: 1026 ± 248 ng/g
t1/2 [10]: 2.27 ± 0.55 h
Substance: N-(2-hydroxyethyl)-N,N-dimethyl-2-oxo-2-(2-oxo-2H-chromen-3-yl)ethanaminium [DBAC]
